Measured values reported in patent US9995734B2, “Human T cell line assay for evaluating the immunologic identity of glatiramer acetate preparations” (Mylan Inc., priority 2013, dated 2018).

Test system: Donor 3 GMA T-Cell Lines
Experiment: ATP proliferation assay (CellTiter Glo), Donor 3 GMA T-cell lines, incl. reactivity to non-canonical GA peptides
Type: cell-based, human
Settings: for ATP proliferation assay: Day 14

Substance: glatiramer acetate [GMA]
- ratio of proliferation in response to GMA:control (APC only): greater than 3.0
- ATP proliferation assay (165-B2G, 10 μg/mL, control 9692): 28770 RLU
- response in proliferation assay (165-B5G, 165-D8G, 165-E7G, 165-F5G, Day 56, 0, 1, 5, 10, 100 μg/mL, GMA and COP responses comparable): responded well
- ATP proliferation assay (165-B5G, 10 μg/mL, control 15423): 63023 RLU
- ATP proliferation assay (165-B11G, 10 μg/mL, control 18412): 56588 RLU
- ATP proliferation assay (165-C4G, 10 μg/mL, control 14869): 62306 RLU
- ATP proliferation assay (165-C5G, 10 μg/mL, control 14240): 76296 RLU
- ATP proliferation assay (165-C8G, 10 μg/mL, control 18205): 79281 RLU
- ATP proliferation assay (165-D8G, 10 μg/mL, control 30331): 136938 RLU
- ATP proliferation assay (165-E7G, 10 μg/mL, control 18215): 66364 RLU
- ATP proliferation assay (165-E9G, 10 μg/mL, control 17059): 52948 RLU
- ATP proliferation assay (165-F2G, 10 μg/mL, control 14734): 44951 RLU
- ATP proliferation assay (165-F5G, 10 μg/mL, control 16943): 100677 RLU
- ATP proliferation assay (165-F8G, 10 μg/mL, control 17986): 72716 RLU
- ATP proliferation assay (165-F10G, 10 μg/mL, control 13314): 42447 RLU
- ATP proliferation assay (165-H11G, 10 μg/mL, control 17149): 52850 RLU
- Proliferation (luminescent ATP assay), Mean (T-cell line 165-05G, 1 μg/mL antigen, Day 50 of culturing, No Antigen Value 2149): 3999 RLU
- Proliferation (luminescent ATP assay), Mean (T-cell line 165-05G, 3 μg/mL antigen, Day 50 of culturing, No Antigen Value 2149): 35643 RLU
- Proliferation (luminescent ATP assay), Mean (T-cell line 165-05G, 10 μg/mL antigen, Day 50 of culturing, No Antigen Value 2149): 53130 RLU
- Proliferation (luminescent ATP assay), Mean (T-cell line 165-05G, 30 μg/mL antigen, Day 50 of culturing, No Antigen Value 2149): 55596 RLU
- Mean, ATP proliferation assay (T-cell line 165-B2G, 1 μg/mL, Day 40): 4034
- Mean, ATP proliferation assay (T-cell line 165-B2G, 3 μg/mL, Day 40): 20994
- Mean, ATP proliferation assay (T-cell line 165-B2G, 10 μg/mL, Day 40): 38244
- Mean, ATP proliferation assay (T-cell line 165-B5G, 1 μg/mL, Day 40): 3866
- Proliferation (luminescent ATP assay), Mean (T-cell line 165-B5G, 1.25 μg/mL antigen, Day 55 of culturing, No Antigen Value 846): 1406 RLU
- Proliferation (luminescent ATP assay), Mean (T-cell line 165-B5G, 2.5 μg/mL antigen, Day 55 of culturing, No Antigen Value 846): 2537 RLU
- Mean, ATP proliferation assay (T-cell line 165-B5G, 3 μg/mL, Day 40): 6591
- Proliferation (luminescent ATP assay), Mean (T-cell line 165-B5G, 5 μg/mL antigen, Day 55 of culturing, No Antigen Value 846): 5205 RLU
- Proliferation (luminescent ATP assay), Mean (T-cell line 165-B5G, 10 μg/mL antigen, Day 55 of culturing, No Antigen Value 846): 11364 RLU
- Mean, ATP proliferation assay (T-cell line 165-B5G, 10 μg/mL, Day 40): 12367
- Mean, ATP proliferation assay (T-cell line 165-C4G, 1 μg/mL, Day 40): 3434
- Mean, ATP proliferation assay (T-cell line 165-C4G, 3 μg/mL, Day 40): 6312
- Mean, ATP proliferation assay (T-cell line 165-C4G, 10 μg/mL, Day 40): 19169
- Mean, ATP proliferation assay (T-cell line 165-C5G, 1 μg/mL, Day 40): 12236
- Proliferation (luminescent ATP assay), Mean (T-cell line 165-C5G, 1.25 μg/mL antigen, autologous B-LCL): 2511 RLU
- Proliferation (luminescent ATP assay), Mean (T-cell line 165-C5G, 2.5 μg/mL antigen, autologous B-LCL): 26253 RLU
- Mean, ATP proliferation assay (T-cell line 165-C5G, 3 μg/mL, Day 40): 36288
- Proliferation (luminescent ATP assay), Mean (T-cell line 165-C5G, 5 μg/mL antigen, autologous B-LCL): 67559 RLU
- Proliferation (luminescent ATP assay), Mean (T-cell line 165-C5G, 10 μg/mL antigen, autologous B-LCL): 74630 RLU
- Mean, ATP proliferation assay (T-cell line 165-C5G, 10 μg/mL, Day 40): 45444
- Mean, ATP proliferation assay (T-cell line 165-C8G, 1 μg/mL, tested with the Donor 3 COP lines of Table 25): 5605 RLU
- Mean, ATP proliferation assay (T-cell line 165-C8G, 3 μg/mL, tested with the Donor 3 COP lines of Table 25): 5002 RLU
- Mean, ATP proliferation assay (T-cell line 165-C8G, 10 μg/mL, tested with the Donor 3 COP lines of Table 25): 30200 RLU
- Mean, ATP proliferation assay (T-cell line 165-D8G, 1 μg/mL, Day 40): 9427
- Mean, ATP proliferation assay (T-cell line 165-D8G, 3 μg/mL, Day 40): 12644
- Mean, ATP proliferation assay (T-cell line 165-D8G, 10 μg/mL, Day 40): 31264
- Mean, ATP proliferation assay (T-cell line 165-E7G, 1 μg/mL, Day 40): 2569
- Proliferation (luminescent ATP assay), Mean (T-cell line 165-E7G, 1.25 μg/mL antigen, autologous B-LCL, Day 55): 8875 RLU
- Proliferation (luminescent ATP assay), Mean (T-cell line 165-E7G, 2.5 μg/mL antigen, autologous B-LCL, Day 55): 10248 RLU
- Mean, ATP proliferation assay (T-cell line 165-E7G, 3 μg/mL, Day 40): 6610
- Proliferation (luminescent ATP assay), Mean (T-cell line 165-E7G, 5 μg/mL antigen, autologous B-LCL, Day 55): 26934 RLU
- Proliferation (luminescent ATP assay), Mean (T-cell line 165-E7G, 10 μg/mL antigen, autologous B-LCL, Day 55): 30721 RLU
- Mean, ATP proliferation assay (T-cell line 165-E7G, 10 μg/mL, Day 40): 14279
- Proliferation (luminescent ATP assay), Mean (T-cell line 165-E9G, 1 μg/mL antigen, Day 50 of culturing, No Antigen Value 1742): 1889 RLU
- Mean, ATP proliferation assay (T-cell line 165-E9G, 1 μg/mL, Day 40): 2961
- Proliferation (luminescent ATP assay), Mean (T-cell line 165-E9G, 1.25 μg/mL antigen, autologous B-LCL): 253 RLU
- Proliferation (luminescent ATP assay), Mean (T-cell line 165-E9G, 2.5 μg/mL antigen, autologous B-LCL): 1647 RLU
- Proliferation (luminescent ATP assay), Mean (T-cell line 165-E9G, 3 μg/mL antigen, Day 50 of culturing, No Antigen Value 1742): 5974 RLU
- Mean, ATP proliferation assay (T-cell line 165-E9G, 3 μg/mL, Day 40): 7837
- Proliferation (luminescent ATP assay), Mean (T-cell line 165-E9G, 5 μg/mL antigen, autologous B-LCL): 12964 RLU
- Proliferation (luminescent ATP assay), Mean (T-cell line 165-E9G, 10 μg/mL antigen, autologous B-LCL): 13809 RLU
- Mean, ATP proliferation assay (T-cell line 165-E9G, 10 μg/mL, Day 40): 24935
- Proliferation (luminescent ATP assay), Mean (T-cell line 165-E9G, 30 μg/mL antigen, Day 50 of culturing, No Antigen Value 1742): 39472 RLU
- Proliferation (luminescent ATP assay), Mean (T-cell line 165-E9G, 10 μpg/mL antigen, Day 50 of culturing, No Antigen Value 1742): 37352 RLU
- Mean, ATP proliferation assay (T-cell line 165-F2G, 1 μg/mL, Day 40): 1753
- Mean, ATP proliferation assay (T-cell line 165-F2G, 3 μg/mL, Day 40): 1422
- Mean, ATP proliferation assay (T-cell line 165-F2G, 10 μg/mL, Day 40): 1502
- Mean, ATP proliferation assay (T-cell line 165-F5G, 1 μg/mL, Day 40): 5669
- Proliferation (luminescent ATP assay), Mean (T-cell line 165-F5G, 1.25 μg/mL antigen, autologous B-LCL): 1071 RLU
- Proliferation (luminescent ATP assay), Mean (T-cell line 165-F5G, 2.5 μg/mL antigen, autologous B-LCL): 19012 RLU
- Mean, ATP proliferation assay (T-cell line 165-F5G, 3 μg/mL, Day 40): 14024
- Proliferation (luminescent ATP assay), Mean (T-cell line 165-F5G, 5 μg/mL antigen, autologous B-LCL): 45384 RLU
- Proliferation (luminescent ATP assay), Mean (T-cell line 165-F5G, 10 μg/mL antigen, autologous B-LCL): 48029 RLU
- Mean, ATP proliferation assay (T-cell line 165-F5G, 10 μg/mL, Day 40): 23774
- Mean, ATP proliferation assay (T-cell line 165-F8G, 1 μg/mL, Day 40): 4804
- Mean, ATP proliferation assay (T-cell line 165-F8G, 3 μg/mL, Day 40): 6841
- Mean, ATP proliferation assay (T-cell line 165-F8G, 10 μg/mL, Day 40): 11880
- Proliferation (luminescent ATP assay), Mean (T-cell line 165-F10G, 1 μg/mL antigen, Day 50 of culturing, No Antigen Value 3752): 4734 RLU
- Mean, ATP proliferation assay (T-cell line 165-F10G, 1 μg/mL, Day 40): 6015
- Proliferation (luminescent ATP assay), Mean (T-cell line 165-F10G, 1.25 μg/mL antigen, autologous B-LCL): 5731 RLU
- Proliferation (luminescent ATP assay), Mean (T-cell line 165-F10G, 2.5 μg/mL antigen, autologous B-LCL): 38905 RLU
- Proliferation (luminescent ATP assay), Mean (T-cell line 165-F10G, 3 μg/mL antigen, Day 50 of culturing, No Antigen Value 3752): 35371 RLU
- Mean, ATP proliferation assay (T-cell line 165-F10G, 3 μg/mL, Day 40): 17900
- Proliferation (luminescent ATP assay), Mean (T-cell line 165-F10G, 5 μg/mL antigen, autologous B-LCL): 66355 RLU
- Proliferation (luminescent ATP assay), Mean (T-cell line 165-F10G, 10 μg/mL antigen, Day 50 of culturing, No Antigen Value 3752): 58913 RLU
- Proliferation (luminescent ATP assay), Mean (T-cell line 165-F10G, 10 μg/mL antigen, autologous B-LCL): 57329 RLU
- Mean, ATP proliferation assay (T-cell line 165-F10G, 10 μg/mL, Day 40): 30198
- Proliferation (luminescent ATP assay), Mean (T-cell line 165-F10G, 30 μg/mL antigen, Day 50 of culturing, No Antigen Value 3752): 59173 RLU
- Proliferation (luminescent ATP assay), Mean (T-cell line 165-H11G, 1 μg/mL antigen, Day 50 of culturing, No Antigen Value 1485): 9569 RLU
- Mean, ATP proliferation assay (T-cell line 165-H11G, 1 μg/mL, Day 40): 10205
- Proliferation (luminescent ATP assay), Mean (T-cell line 165-H11G, 1.25 μg/mL antigen, autologous B-LCL): 8 RLU
- Proliferation (luminescent ATP assay), Mean (T-cell line 165-H11G, 2.5 μg/mL antigen, autologous B-LCL): 33793 RLU
- Proliferation (luminescent ATP assay), Mean (T-cell line 165-H11G, 3 μg/mL antigen, Day 50 of culturing, No Antigen Value 1485): 46539 RLU
- Mean, ATP proliferation assay (T-cell line 165-H11G, 3 μg/mL, Day 40): 27515
- Proliferation (luminescent ATP assay), Mean (T-cell line 165-H11G, 5 μg/mL antigen, autologous B-LCL): 70949 RLU
- Proliferation (luminescent ATP assay), Mean (T-cell line 165-H11G, 10 μg/mL antigen, Day 50 of culturing, No Antigen Value 1485): 49104 RLU
- Proliferation (luminescent ATP assay), Mean (T-cell line 165-H11G, 10 μg/mL antigen, autologous B-LCL): 72728 RLU
- Mean, ATP proliferation assay (T-cell line 165-H11G, 10 μg/mL, Day 40): 44067
- Proliferation (luminescent ATP assay), Mean (T-cell line 165-H11G, 30 μg/mL antigen, Day 50 of culturing, No Antigen Value 1485): 32179 RLU
- responsiveness in proliferation assay (all 8 Donor 3 GMA cell lines tested, Day 32, 10 μg/mL (Table 19)): responsive
- responsiveness in proliferation assay (eleven of the 12 cell lines (all but F2G), Day 40, 1, 3 or 10 μg/mL (Table 21)): responsive
